Source: PubChem BioAssay (NCI)
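All cell lines were grown in 96-well plates and treated with compound for 48 hours. Definition used: TGI = concentration required for complete inhibition of growth.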

Legend:
Test in all cases: DTP human tumour cell line panel, 48 h
M14 melanoma = system: M14 melanoma
IGROV1 ovarian = system: IGROV1 ovarian
MCF7 breast = system: MCF7 breast
SK-MEL-2 melanoma = system: SK-MEL-2 melanoma
UO-31 renal = system: UO-31 renal
MDA-N = system: MDA-N
SF-268 CNS = system: SF-268 CNS
A549 NSCLC = system: A549 NSCLC
EKVX NSCLC = system: EKVX NSCLC
786-0 renal = system: 786-0 renal
SK-MEL-5 melanoma = system: SK-MEL-5 melanoma
HOP-62 NSCLC = system: HOP-62 NSCLC
T-47D breast = system: T-47D breast
SNB-75 CNS = system: SNB-75 CNS
SNB-19 CNS = system: SNB-19 CNS
RXF 393 renal = system: RXF 393 renal
U251 CNS = system: U251 CNS
NCI-H23 lung = system: NCI-H23 lung
LOX IMVI melanoma = system: LOX IMVI melanoma
SF-539 CNS = system: SF-539 CNS
TK-10 renal = system: TK-10 renal
DU-145 prostate = system: DU-145 prostate
HS 578T breast = system: HS 578T breast
HCT-15 colon = system: HCT-15 colon
SW-620 colon = system: SW-620 colon
OVCAR-8 ovarian = system: OVCAR-8 ovarian
SN12C renal = system: SN12C renal
MALME-3M melanoma = system: MALME-3M melanoma
SK-MEL-28 melanoma = system: SK-MEL-28 melanoma
UACC-62 melanoma = system: UACC-62 melanoma
RPMI-8226 leukemia = system: RPMI-8226 leukemia
HCT-116 colon = system: HCT-116 colon
MDA-MB-435 = system: MDA-MB-435
OVCAR-5 ovarian = system: OVCAR-5 ovarian
HOP-92 NSCLC = system: HOP-92 NSCLC
K-562 leukemia = system: K-562 leukemia
A498 renal = system: A498 renal
NCI-H226 lung = system: NCI-H226 lung
SK-OV-3 ovarian = system: SK-OV-3 ovarian
NCI-H460 lung = system: NCI-H460 lung
HCC-2998 colon = system: HCC-2998 colon
MDA-MB-231 breast = system: MDA-MB-231 breast
OVCAR-4 ovarian = system: OVCAR-4 ovarian
HL-60(TB) leukemia = system: HL-60(TB) leukemia
CAKI-1 renal = system: CAKI-1 renal
NCI/ADR-RES ovarian = system: NCI/ADR-RES ovarian
ACHN renal = system: ACHN renal
COLO 205 colon = system: COLO 205 colon
NCI-H522 lung = system: NCI-H522 lung
HT29 colon = system: HT29 colon
UACC-257 melanoma = system: UACC-257 melanoma
PC-3 prostate = system: PC-3 prostate
KM12 colon = system: KM12 colon
BT-549 breast = system: BT-549 breast
OVCAR-3 ovarian = system: OVCAR-3 ovarian

SMILES: CC1OC(OC2C(O[C@H]3CC[C@@]4(C)C(=CC[C@H]5[C@@H]6C[C@@H]7O[C@]8(CC[C@@H](CO)CO8)[C@@H](C)[C@@H]7[C@@]6(C)CC[C@@H]54)C3)OC(CO)C(O)C2OC2OC(CO)C(O)C(O)C2O)C(O)C(O)C1O (stereo not given in full)
- TGI (M14 melanoma): 4.14 µM
- TGI (IGROV1 ovarian): 4.05 µM
- TGI (MCF7 breast): 3.15 µM
- TGI (SK-MEL-2 melanoma): 3.7 µM
- TGI (UO-31 renal): 5.46 µM
- TGI (MDA-N): 3.06 µM
- TGI (SF-268 CNS): 3.54 µM
- TGI (A549 NSCLC): 4.48 µM
- TGI (EKVX NSCLC): 3.96 µM
- TGI (786-0 renal): 3.3 µM
- TGI (SK-MEL-5 melanoma): 3.11 µM
- TGI (HOP-62 NSCLC): 3.21 µM
- TGI (T-47D breast): 4.02 µM
- TGI (SNB-75 CNS): 3.06 µM
- TGI (SNB-19 CNS): 3.96 µM
- TGI (RXF 393 renal): 3.01 µM
- TGI (U251 CNS): 3.22 µM
- TGI (NCI-H23 lung): 4.07 µM
- TGI (LOX IMVI melanoma): 3.39 µM
- TGI (SF-539 CNS): 3.07 µM
- TGI (TK-10 renal): 3.08 µM
- TGI (DU-145 prostate): 3.34 µM
- TGI (HS 578T breast): 8.06 µM
- TGI (HCT-15 colon): 3.94 µM
- TGI (SW-620 colon): 3.54 µM
- TGI (OVCAR-8 ovarian): 3.46 µM
- TGI (SN12C renal): 3.21 µM
- TGI (MALME-3M melanoma): 3.34 µM
- TGI (SK-MEL-28 melanoma): 3.46 µM
- TGI (UACC-62 melanoma): 3.23 µM
- TGI (RPMI-8226 leukemia): 3.92 µM
- TGI (HCT-116 colon): 3.02 µM
- TGI (MDA-MB-435): 3.48 µM
- TGI (OVCAR-5 ovarian): 4.08 µM
- TGI (HOP-92 NSCLC): 3.32 µM
- TGI (K-562 leukemia): 3.17 µM
- TGI (A498 renal): 3.82 µM
- TGI (NCI-H226 lung): 3.79 µM
- TGI (SK-OV-3 ovarian): 4.19 µM
- TGI (NCI-H460 lung): 3.18 µM
- TGI (HCC-2998 colon): 2.97 µM
- TGI (MDA-MB-231 breast): 3.25 µM
- TGI (OVCAR-4 ovarian): 3.69 µM
- TGI (HL-60(TB) leukemia): 2.8 µM
- TGI (CAKI-1 renal): 3.55 µM
- TGI (NCI/ADR-RES ovarian): 3.76 µM
- TGI (ACHN renal): 3.25 µM
- TGI (COLO 205 colon): 3.42 µM
- TGI (NCI-H522 lung): 3.19 µM
- TGI (HT29 colon): 4.91 µM
- TGI (UACC-257 melanoma): 3.24 µM
- TGI (PC-3 prostate): 3.33 µM
- TGI (KM12 colon): 3.57 µM

SMILES: O=C(NCCCNCCCNC(=O)c1cc(-c2ccccc2)nc2ccccc12)c1cc(-c2ccccc2)nc2ccccc12
- TGI (M14 melanoma): 3.19 µM
- TGI (IGROV1 ovarian): 3.19 µM
- TGI (SK-MEL-2 melanoma): 3.55 µM
- TGI (UO-31 renal): 3.38 µM
- TGI (MDA-N): 3.13 µM
- TGI (A549 NSCLC): 3.34 µM
- TGI (EKVX NSCLC): 3.32 µM
- TGI (SK-MEL-5 melanoma): 3.45 µM
- TGI (HOP-62 NSCLC): 2.16 µM
- TGI (SNB-75 CNS): 2.96 µM
- TGI (BT-549 breast): > 23.7 µM
- TGI (SF-539 CNS): > 100 µM
- TGI (TK-10 renal): 3.22 µM
- TGI (DU-145 prostate): 3.08 µM
- TGI (HCT-15 colon): > 100 µM
- TGI (OVCAR-8 ovarian): > 100 µM
- TGI (MALME-3M melanoma): 3.5 µM
- TGI (SK-MEL-28 melanoma): 3.09 µM
- TGI (RPMI-8226 leukemia): 4.78 µM
- TGI (OVCAR-5 ovarian): 3.53 µM
- TGI (HOP-92 NSCLC): 4.17 µM
- TGI (K-562 leukemia): 3.53 µM
- TGI (SK-OV-3 ovarian): 4.95 µM
- TGI (MDA-MB-231 breast): 3.14 µM
- TGI (OVCAR-4 ovarian): 3.32 µM
- TGI (OVCAR-3 ovarian): 3.23 µM
- TGI (HL-60(TB) leukemia): 3.16 µM
- TGI (CAKI-1 renal): 3.7 µM
- TGI (NCI/ADR-RES ovarian): 4.13 µM
- TGI (ACHN renal): 3.2 µM
- TGI (UACC-257 melanoma): 3.73 µM
- TGI (PC-3 prostate): 2.99 µM
